Measurements published in patent publication US6770596B1, “Fused tricyclic compounds, process for their preparation, and herbicidal compositions containing them” (Ishihara Sangyo Kaisha Ltd., priority 2002, dated 2004).

Assays:
Assay type in all cases: in vivo
[1] = test system: velvetleaf (Abutilon theophrasti, ABT); experiment: Post-emerge test, velvetleaf; conditions: 250 g ai/ha, 14 days after application, rating scale 0-100 (0 no damage, 100 complete death)
Text: (§1) A standard greenhouse herbicide activity screening system was used to evaluate the herbicidal efficacy and crop safety of these test compounds. Seven broadleaf weed species including redroot pigweed (Amaranthus retroflexus, AMR), velvetleaf (Abutilon theophrasti, ABT), sicklepod (Cassia obtusifolia, CAO), ivyleaf morningglory (Ipomoea hederacea, IPH), lambsquarters (Chenopodium album, CHA), common ragweed (Ambrosia artemisiifolia L., AML), and cocklebur (Xanthium strumariunt, XAS) were used as test species. Four grass weed species including green foxtail (Setaria viridis, SEV), barnyardgrass (Echinachloa crus-galli, ECC), johnsongrass (Sorghum halepense, SOH), and large crabgrass (Digitaria sanguinalis, DIS) were also used. In addition, four crop species, field corn (Zea mays L., var. Dekalb 535, CORN), soybean (Glycine max L., var. Pella 86, SOY), upland rice (Oryza sp., var.Tebonnet, RICE), and wheat (Triticum aestivum) were included all plants were grown in 10 cm square plastic pots which were filled with a sandy loam soil mix.
(§2) For pre-emerge tests, seeds were planted one day prior to application of the test compounds. All test compounds were dissolved in acetone and applied to the test pots in a volume of 187 l/ha. Test materials were applied at rates ranging from 8 g ai/ha to 1000 g ai/ha using a track sprayer equipped with a TJ8001E even flow flat fan spray nozzle. This application simulates a typical commercial field herbicide application.
(§3) For post-emerge tests, seeds were planted 8-21 days prior to the test to allow emergence and good foliage development prior to application of the test substances. At the time of the post-emerge application, plants of all species were usually at the 2-3 leaf stage of development. In the postemerge test, a commercial non-ionic surfactant was also included (0.25% v/v) to enhance wetting of the leaf surfaces of target plants.
(§4) At 14 days after application of the test materials, phytotoxicity ratings were recorded. A rating scale of 0-100 was used for both pre and post emerge tests as previously described in Research Methods in Weed Science, 2nd edition, B, Truelove, Ed., Southern Weed Science Society, Auburn University, Auburn, Ala., 1977. Briefly, “0” corresponds to no damage and “100” corresponds to complete death of all plants in the test unit. This scale was used both to determine efficacy against weed species and damage to crop species. Herbicide activity data for various compounds of this invention, which are shown by compound No. in Tables 1-3, are shown in Tables 5 and 6.

[2] = test system: redroot pigweed (Amaranthus retroflexus, AMR); experiment: Pre-emerge test, redroot pigweed; conditions: 250 g ai/ha, 14 days after application, rating scale 0-100 (0 no damage, 100 complete death)
Text: as §1, §2, §4

[3] = test system: soybean (Glycine max L., var. Pella 86, SOY); experiment: Post-emerge test, crop damage soybean; conditions: post-emerge, 250 g ai/ha, 14 days after application, rating scale 0-100 (0 no damage, 100 complete death)
Text: as §1, §2, §3, §4

[4] = test system: johnsongrass (Sorghum halepense, SOH); experiment: Post-emerge test, johnsongrass; conditions: 250 g ai/ha, 14 days after application, rating scale 0-100 (0 no damage, 100 complete death)
Text: as §1, §2, §3, §4

[5] = test system: velvetleaf (Abutilon theophrasti, ABT); experiment: Pre-emerge test, velvetleaf; conditions: 250 g ai/ha, 14 days after application, rating scale 0-100 (0 no damage, 100 complete death)
Text: as §1, §2, §4

[6] = test system: redroot pigweed (Amaranthus retroflexus, AMR); experiment: Post-emerge test, redroot pigweed; conditions: 250 g ai/ha, 14 days after application, rating scale 0-100 (0 no damage, 100 complete death)
Text: as §1, §2, §3, §4

[7] = test system: upland rice (Oryza sp., var.Tebonnet, RICE); experiment: Pre-emerge test, crop damage upland rice; conditions: pre-emerge, 250 g ai/ha, 14 days after application, rating scale 0-100 (0 no damage, 100 complete death)
Text: as §1, §2, §4

[8] = test system: green foxtail (Setaria viridis, SEV); experiment: Pre-emerge test, green foxtail; conditions: 250 g ai/ha, 14 days after application, rating scale 0-100 (0 no damage, 100 complete death)
Text: as §1, §2, §4

[9] = test system: ivyleaf morningglory (Ipomoea hederacea, IPH); experiment: Pre-emerge test, ivyleaf morningglory; conditions: 250 g ai/ha, 14 days after application, rating scale 0-100 (0 no damage, 100 complete death)
Text: as §1, §2, §4

[10] = test system: ivyleaf morningglory (Ipomoea hederacea, IPH); experiment: Post-emerge test, ivyleaf morningglory; conditions: 250 g ai/ha, 14 days after application, rating scale 0-100 (0 no damage, 100 complete death)
Text: as §1, §2, §3, §4

[11] = test system: common ragweed (Ambrosia artemisiifolia L., AML); experiment: Pre-emerge test, common ragweed; conditions: 250 g ai/ha, 14 days after application, rating scale 0-100 (0 no damage, 100 complete death)
Text: as §1, §2, §4

[12] = test system: cocklebur (Xanthium strumariunt, XAS); experiment: Pre-emerge test, cocklebur; conditions: 250 g ai/ha, 14 days after application, rating scale 0-100 (0 no damage, 100 complete death)
Text: as §1, §2, §4

[13] = test system: field corn (Zea mays L., var. Dekalb 535, CORN); experiment: Pre-emerge test, crop damage field corn; conditions: pre-emerge, 250 g ai/ha, 14 days after application, rating scale 0-100 (0 no damage, 100 complete death)
Text: as §1, §2, §4

[14] = test system: barnyardgrass (Echinachloa crus-galli, ECC); experiment: Post-emerge test, barnyardgrass; conditions: 250 g ai/ha, 14 days after application, rating scale 0-100 (0 no damage, 100 complete death)
Text: as §1, §2, §3, §4

[15] = test system: lambsquarters (Chenopodium album, CHA); experiment: Post-emerge test, lambsquarters; conditions: 250 g ai/ha, 14 days after application, rating scale 0-100 (0 no damage, 100 complete death)
Text: as §1, §2, §3, §4

[16] = test system: sicklepod (Cassia obtusifolia, CAO); experiment: Pre-emerge test, sicklepod; conditions: 250 g ai/ha, 14 days after application, rating scale 0-100 (0 no damage, 100 complete death)
Text: as §1, §2, §4

[17] = test system: upland rice (Oryza sp., var.Tebonnet, RICE); experiment: Post-emerge test, crop damage upland rice; conditions: post-emerge, 250 g ai/ha, 14 days after application, rating scale 0-100 (0 no damage, 100 complete death)
Text: as §1, §2, §3, §4

[18] = test system: soybean (Glycine max L., var. Pella 86, SOY); experiment: Pre-emerge test, crop damage soybean; conditions: pre-emerge, 250 g ai/ha, 14 days after application, rating scale 0-100 (0 no damage, 100 complete death)
Text: as §1, §2, §4

[19] = test system: barnyardgrass (Echinachloa crus-galli, ECC); experiment: Pre-emerge test, barnyardgrass; conditions: 250 g ai/ha, 14 days after application, rating scale 0-100 (0 no damage, 100 complete death)
Text: as §1, §2, §4

[20] = test system: green foxtail (Setaria viridis, SEV); experiment: Post-emerge test, green foxtail; conditions: 250 g ai/ha, 14 days after application, rating scale 0-100 (0 no damage, 100 complete death)
Text: as §1, §2, §3, §4

[21] = test system: cocklebur (Xanthium strumariunt, XAS); experiment: Post-emerge test, cocklebur; conditions: 250 g ai/ha, 14 days after application, rating scale 0-100 (0 no damage, 100 complete death)
Text: as §1, §2, §3, §4

[22] = test system: lambsquarters (Chenopodium album, CHA); experiment: Pre-emerge test, lambsquarters; conditions: 250 g ai/ha, 14 days after application, rating scale 0-100 (0 no damage, 100 complete death)
Text: as §1, §2, §4

[23] = test system: large crabgrass (Digitaria sanguinalis, DIS); experiment: Pre-emerge test, large crabgrass; conditions: 250 g ai/ha, 14 days after application, rating scale 0-100 (0 no damage, 100 complete death)
Text: as §1, §2, §4

[24] = test system: wheat (Triticum aestivum); experiment: Pre-emerge test, crop damage wheat; conditions: pre-emerge, 250 g ai/ha, 14 days after application, rating scale 0-100 (0 no damage, 100 complete death)
Text: as §1, §2, §4

[25] = test system: large crabgrass (Digitaria sanguinalis, DIS); experiment: Post-emerge test, large crabgrass; conditions: 250 g ai/ha, 14 days after application, rating scale 0-100 (0 no damage, 100 complete death)
Text: as §1, §2, §3, §4

[26] = test system: common ragweed (Ambrosia artemisiifolia L., AML); experiment: Post-emerge test, common ragweed; conditions: 250 g ai/ha, 14 days after application, rating scale 0-100 (0 no damage, 100 complete death)
Text: as §1, §2, §3, §4

[27] = test system: field corn (Zea mays L., var. Dekalb 535, CORN); experiment: Post-emerge test, crop damage field corn; conditions: post-emerge, 250 g ai/ha, 14 days after application, rating scale 0-100 (0 no damage, 100 complete death)
Text: as §1, §2, §3, §4

[28] = test system: sicklepod (Cassia obtusifolia, CAO); experiment: Post-emerge test, sicklepod; conditions: 250 g ai/ha, 14 days after application, rating scale 0-100 (0 no damage, 100 complete death)
Text: as §1, §2, §3, §4

[29] = test system: johnsongrass (Sorghum halepense, SOH); experiment: Pre-emerge test, johnsongrass; conditions: 250 g ai/ha, 14 days after application, rating scale 0-100 (0 no damage, 100 complete death)
Text: as §1, §2, §4

[30] = test system: wheat (Triticum aestivum); experiment: Post-emerge test, crop damage wheat; conditions: post-emerge, 250 g ai/ha, 14 days after application, rating scale 0-100 (0 no damage, 100 complete death)
Text: as §1, §2, §3, §4

| Compound | Post-emerge Herbicidal Activity ABT (phytotoxicity rating) [1] | Pre-emerge Herbicidal Activity AMR (phytotoxicity rating) [2] | Post-emerge crop damage SOY (phytotoxicity rating) [3] | Post-emerge Herbicidal Activity SOH (phytotoxicity rating) [4] | Pre-emerge Herbicidal Activity ABT (phytotoxicity rating) [5] | Post-emerge Herbicidal Activity AMR (phytotoxicity rating) [6] | Pre-emerge crop damage RICE (phytotoxicity rating) [7] | Pre-emerge Herbicidal Activity SEV (phytotoxicity rating) [8] | Pre-emerge Herbicidal Activity IPH (phytotoxicity rating) [9] | Post-emerge Herbicidal Activity IPH (phytotoxicity rating) [10] | Pre-emerge Herbicidal Activity AML (phytotoxicity rating) [11] | Pre-emerge Herbicidal Activity XAS (phytotoxicity rating) [12] | Pre-emerge crop damage CORN (phytotoxicity rating) [13] | Post-emerge Herbicidal Activity ECC (phytotoxicity rating) [14] | Post-emerge Herbicidal Activity CHA (phytotoxicity rating) [15] | Pre-emerge Herbicidal Activity CAO (phytotoxicity rating) [16] | Post-emerge crop damage RICE (phytotoxicity rating) [17] | Pre-emerge crop damage SOY (phytotoxicity rating) [18] | Pre-emerge Herbicidal Activity ECC (phytotoxicity rating) [19] | Post-emerge Herbicidal Activity SEV (phytotoxicity rating) [20] | further results |
| --- | --- | --- | --- | --- | --- | --- | --- | --- | --- | --- | --- | --- | --- | --- | --- | --- | --- | --- | --- | --- | --- |
| CC1C(=O)Nc2c3c(cc(F)c2-n2c(=O)cc(C(F)(F)F)n(C)c2=O)OCC(=O)N31 (stereo not drawn) [1-2] | 100 | 100 | 50 | 20 | 100 | 90 | 100 | 100 | 100 | 90 | 100 | 99 | 100 | 60 | 80 | 99 | 70 | 99 | 100 | 60 | Post-emerge Herbicidal Activity XAS (phytotoxicity rating) [21]: 75; Pre-emerge Herbicidal Activity CHA (phytotoxicity rating) [22]: 100; Pre-emerge Herbicidal Activity DIS (phytotoxicity rating) [23]: 100; Pre-emerge crop damage WHEAT (phytotoxicity rating) [24]: 100; Post-emerge Herbicidal Activity DIS (phytotoxicity rating) [25]: 0; Post-emerge Herbicidal Activity AML (phytotoxicity rating) [26]: 65; Post-emerge crop damage CORN (phytotoxicity rating) [27]: 10; Post-emerge Herbicidal Activity CAO (phytotoxicity rating) [28]: 0; Pre-emerge Herbicidal Activity SOH (phytotoxicity rating) [29]: 100; Post-emerge crop damage WHEAT (phytotoxicity rating) [30]: 25 |
| Cn1nc(-c2c(F)cc3c4c2NC(=O)C(Cl)N4C(=O)CO3)c(Cl)c1OC(F)F (stereo not drawn) [1-79] | 75 | 100 | 0 | 0 | 75 | 70 | 30 | 15 | 60 | 60 | 99 | 65 | 30 | 25 | 65 | 60 | 0 | 40 | 35 | 65 | Post-emerge Herbicidal Activity XAS (phytotoxicity rating) [21]: 0; Pre-emerge Herbicidal Activity CHA (phytotoxicity rating) [22]: 100; Pre-emerge Herbicidal Activity DIS (phytotoxicity rating) [23]: 80; Pre-emerge crop damage WHEAT (phytotoxicity rating) [24]: 30; Post-emerge Herbicidal Activity DIS (phytotoxicity rating) [25]: 0; Post-emerge Herbicidal Activity AML (phytotoxicity rating) [26]: 80; Post-emerge crop damage CORN (phytotoxicity rating) [27]: 0; Post-emerge Herbicidal Activity CAO (phytotoxicity rating) [28]: 0; Pre-emerge Herbicidal Activity SOH (phytotoxicity rating) [29]: 50; Post-emerge crop damage WHEAT (phytotoxicity rating) [30]: 0 |
| CCC1C(=O)Nc2c(-c3nn(C)c(OC(F)F)c3Cl)c(F)cc3c2N1C(=O)C(C)(C)O3 (stereo not drawn) [1-61] | 98 | 100 | 25 | 20 | 100 | 75 | 10 | 100 | 98 | 100 | 80 | 60 | 0 | 35 | 99 | 65 | 30 | 25 | 99 | 85 | Post-emerge Herbicidal Activity XAS (phytotoxicity rating) [21]: 90; Pre-emerge Herbicidal Activity CHA (phytotoxicity rating) [22]: 100; Pre-emerge Herbicidal Activity DIS (phytotoxicity rating) [23]: 98; Pre-emerge crop damage WHEAT (phytotoxicity rating) [24]: 15; Post-emerge Herbicidal Activity DIS (phytotoxicity rating) [25]: 0; Post-emerge Herbicidal Activity AML (phytotoxicity rating) [26]: 60; Post-emerge crop damage CORN (phytotoxicity rating) [27]: 3; Post-emerge Herbicidal Activity CAO (phytotoxicity rating) [28]: 30; Pre-emerge Herbicidal Activity SOH (phytotoxicity rating) [29]: 100; Post-emerge crop damage WHEAT (phytotoxicity rating) [30]: 30 |
